B1: M830: TEM8 monoclonal antibody (hIgG1), VH SEQ ID NO:5, VL SEQ ID NO:6 (antibody, V domains shown)
VH: EVQLVESGGGVVQPGRSVRLSCAASGFTFSTYTMHWVRQAPGKGLEWVAIISNDGSNKYYADPVRGRFTISRDNSKNTLYLQMNSLRAEDTAVYYCVRGSSWYRGNWFDPWGQGTLVTVSS
VL: DIQMTQSPSSLSASVGDRVTIACRASQTISRYLNWYQQKPGKAPKLLIYAASSLQSGVSSRFSGSGSGTEFTLTISSLQPEDFATYFCQQTYSPPITFGQGTRLEIKR
modifications: TEM830 mAb VH; TEM830 mAb VL

How the values were obtained:
MDA-MB231 tumors = settings: 79-day study, endpoint 1500 mm^3; logrank
Protocol: Unless otherwise noted, female immunodeficient athymic nude mice (Crl:NU(Ncr)-Foxn/nu, Charles River) were used at nine weeks old with a body weight (BW) range of about 15 to about 30 grams on Day 1 of the study.
On the day of tumor implant, each test mouse was injected with cultured tumor cells, and tumor growth was monitored as the average size approached the target range. Tumors were measured in two dimensions using calipers, and volume was calculated using the formula: Tumor Volume (mm^3)=(w^2×l)/2 where w=width and l=length, in mm, of the tumor. Tumor weight was estimated with the assumption that 1 mg is equivalent to 1 mm^3 of tumor volume. For all therapeutic studies, mice were sorted into groups containing the same average size tumors prior to initiation of therapy. Controls
One group in each cohort received 1% vehicle IP three times per week to end, and served as the control group for calculation of % tumor growth delay (TGD).
Tumors were measured using calipers twice per week, and each animal was euthanized when its tumor reached the pre-determined tumor volume endpoint described for each experiment (usually 2000 mm^3) or on the final day, whichever came first. […] The time to endpoint (TTE) for analysis was calculated for each mouse by the following equation: TTE=[ log10(endpoint volume)−b]/m where TTE is expressed in days, endpoint volume is expressed in mm^3, b is the intercept, and m is the slope of the line obtained by linear regression of a log-transformed tumor growth data set. […] The calculated TTE was usually less than the TP date, the day on which the animal was euthanized for determination of tumor size. […]
Treatment outcome was evaluated from TGD, defined as the increase in the median TTE in a treatment group compared to the control group: TGD=T−C, expressed in days, or as a percentage of the median TTE of the control group: % TGD=[(T−C)/C]×100 where: […]
Animals were weighed daily on Days 1-5, then twice per week until completion of the study. […] Group mean BW loss also was monitored as per protocol. […]

H460 cells = assay: M830 in the H460 non-small cell lung carcinoma xenograft model; format: in vivo, athymic nude mice; settings: M830 with combination partner Paclitaxel
Protocol: Animals were monitored for regression responses.
Cultured H460 cells were harvested during exponential growth and resuspended in phosphate buffered saline at a concentration of 1×10^8 cells/mL. 1.0×10^7 tumor cells were injected subcutaneously into the flank of athymic nude mice.

Row | Molecule | survival compared to controls (MDA-MB231 tumors) | regression (at Day 21) (H460 cells)
1 | CC(=O)O[C@H]1C(=O)[C@@]2(C)[C@H]([C@H](OC(=O)c3ccccc3)[C@]3(O)C[C@H](OC(=O)[C@H](O)[C@@H](NC(=O)c4ccccc4)c4ccccc4)C(C)=C1C3(C)C)[C@]1(OC(C)=O)CO[C@@H]1C[C@@H]2O [paclitaxel] | statistically significant survival extensions | 
2 | COc1cccc2c1C(=O)c1c(O)c3c(c(O)c1C2=O)C[C@@](O)(C(=O)CO)C[C@@H]3O[C@H]1C[C@H](N)[C@H](O)[C@H](C)O1 [Doxorubicin, doxorubicin] | statistically significant survival extensions | 
3 | B1 | did not produce statistically significant survival benefit | (−61% regression)
